Results from PubChem BioAssay AID1963838 (Molecular Pharmacology Branch, DTP, NCI, 2024).

System: 855422-203-R-J1-PDC complex spheroid viability
Test: Anticancer human tumor 855422-203-R-J1-PDC patient-derived bladder carcinoma cell line growth inhibition [POLQ]
Details: for IC50: curve of first compound; for viability, T/C: stronger effect = lower value
In short: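 Three-cell-type spheroids modelling solid tumor plus stroma served as the readout system; POL inhibitors were tested individually and in combination, concentration ranges set by clinical Cmax where known.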

[1] = second compound 0.0316 µM, first compound 0.0316 µM
[2] = second compound 0.0316 µM, first compound 0.1 µM
[3] = second compound 0.0316 µM, first compound 0.316 µM
[4] = second compound 0.0316 µM, first compound 1 µM
[5] = second compound 0.0316 µM, first compound 3.16 µM
[6] = second compound 0.0316 µM, first compound 10 µM
[7] = second compound 0.1 µM, first compound 0.0316 µM
[8] = second compound 0.1 µM, first compound 0.1 µM
[9] = second compound 0.1 µM, first compound 0.316 µM
[10] = second compound 0.1 µM, first compound 1 µM
[11] = second compound 0.1 µM, first compound 3.16 µM
[12] = second compound 0.1 µM, first compound 10 µM
[13] = second compound 0.316 µM, first compound 0.0316 µM
[14] = second compound 0.316 µM, first compound 0.1 µM
[15] = second compound 0.316 µM, first compound 0.316 µM
[16] = second compound 0.316 µM, first compound 1 µM
[17] = second compound 0.316 µM, first compound 3.16 µM
[18] = second compound 0.316 µM, first compound 10 µM
[19] = second compound 1 µM, first compound 0.0316 µM
[20] = second compound 1 µM, first compound 0.1 µM
[21] = second compound 1 µM, first compound 0.316 µM
[22] = second compound 1 µM, first compound 1 µM
[23] = second compound 1 µM, first compound 3.16 µM
[24] = second compound 1 µM, first compound 10 µM
[25] = second compound 3.16 µM, first compound 0.0316 µM
[26] = second compound 3.16 µM, first compound 0.1 µM
[27] = second compound 3.16 µM, first compound 0.316 µM
[28] = second compound 3.16 µM, first compound 1 µM
[29] = second compound 3.16 µM, first compound 3.16 µM
[30] = second compound 3.16 µM, first compound 10 µM
[31] = second compound 10 µM, first compound 0.0316 µM
[32] = second compound 10 µM, first compound 0.1 µM
[33] = second compound 10 µM, first compound 0.316 µM
[34] = second compound 10 µM, first compound 1 µM
[35] = second compound 10 µM, first compound 3.16 µM
[36] = second compound 10 µM, first compound 10 µM
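Further: spheroids exposed to compounds for seven days before readout.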

Q: With `CC1COCCN1c1cc(-c2ccnn2C)c2ccnc(-c3ccn[nH]3)c2n1` (centres undefined) + Nc1ccc(C#CCN(C(=O)Cc2ncc(C(F)(F)F)cc2C(F)(F)F)c2ccc(F)cc2)nn1 as the molecule, how does the IC50 (second compound 0.0316 µM) read?
A: 255 nM

Q: What about the IC50 (second compound 0.1 µM) of the same molecule?
A: 275 nM

Q: What about the IC50 (second compound 0.316 µM) of the same molecule?
A: 253 nM

Q: What about the IC50 (second compound 1 µM) of the same molecule?
A: 203 nM

Q: What about the IC50 (second compound 3.16 µM) of the same molecule?
A: 234 nM

Q: What about the IC50 (second compound 10 µM) of the same molecule?
A: 202 nM

Q: What about the viability, T/C [1] of the same molecule?
A: 124%

Q: And the viability, T/C [2]?
A: 124%

Q: What about the viability, T/C [3] of the same molecule?
A: 33.2%

Q: And the viability, T/C [4]?
A: 16%

Q: And the viability, T/C [5]?
A: 13.6%

Q: And the viability, T/C [6]?
A: 12.8%

Q: What about the viability, T/C [7] of the same molecule?
A: 118%

Q: What about the viability, T/C [8] of the same molecule?
A: 159%

Q: What about the viability, T/C [9] of the same molecule?
A: 37.7%

Q: What about the viability, T/C [10] of the same molecule?
A: 17.4%

Q: What about the viability, T/C [11] of the same molecule?
A: 11.8%

Q: And the viability, T/C [12]?
A: 11.9%

Q: And the viability, T/C [13]?
A: 128%

Q: And the viability, T/C [14]?
A: 140%

Q: And the viability, T/C [15]?
A: 30%

Q: What about the viability, T/C [16] of the same molecule?
A: 13.2%

Q: What about the viability, T/C [17] of the same molecule?
A: 11.3%

Q: And the viability, T/C [18]?
A: 10.5%

Q: What about the viability, T/C [19] of the same molecule?
A: 119%

Q: What about the viability, T/C [20] of the same molecule?
A: 92.5%

Q: And the viability, T/C [21]?
A: 23.3%

Q: What about the viability, T/C [22] of the same molecule?
A: 15.3%

Q: What about the viability, T/C [23] of the same molecule?
A: 12.6%

Q: And the viability, T/C [24]?
A: 8.88%

Q: And the viability, T/C [25]?
A: 102%

Q: What about the viability, T/C [26] of the same molecule?
A: 128%

Q: And the viability, T/C [27]?
A: 27.1%

Q: And the viability, T/C [28]?
A: 15.1%

Q: And the viability, T/C [29]?
A: 10.3%

Q: What about the viability, T/C [30] of the same molecule?
A: 8.61%

Q: What about the viability, T/C [31] of the same molecule?
A: 119%

Q: And the viability, T/C [32]?
A: 88.8%

Q: What about the viability, T/C [33] of the same molecule?
A: 25.2%

Q: And the viability, T/C [34]?
A: 12.9%

Q: What about the viability, T/C [35] of the same molecule?
A: 11.1%

Q: And the viability, T/C [36]?
A: 10.7%

Q: Which IC50 (second compound 0.0316 µM) does the source give for `CC1COCCN1c1cc(C2(O)CC3CCC(C2)O3)c2cnn(-c3ccn[nH]3)c2n1` (centres undefined) + Nc1ccc(C#CCN(C(=O)Cc2ncc(C(F)(F)F)cc2C(F)(F)F)c2ccc(F)cc2)nn1 here?
A: 217 nM

Q: And the IC50 (second compound 0.1 µM)?
A: 194 nM

Q: What about the IC50 (second compound 0.316 µM) of the same molecule?
A: 174 nM

Q: What about the IC50 (second compound 1 µM) of the same molecule?
A: 170 nM

Q: And the IC50 (second compound 3.16 µM)?
A: 147 nM

Q: And the IC50 (second compound 10 µM)?
A: 98.9 nM

Q: And the viability, T/C [1]?
A: 111%

Q: What about the viability, T/C [2] of the same molecule?
A: 105%

Q: And the viability, T/C [3]?
A: 23.2%

Q: What about the viability, T/C [4] of the same molecule?
A: 12.7%

Q: What about the viability, T/C [5] of the same molecule?
A: 11.1%

Q: What about the viability, T/C [6] of the same molecule?
A: 7.13%

Q: What about the viability, T/C [7] of the same molecule?
A: 139%

Q: And the viability, T/C [8]?
A: 84%

Q: And the viability, T/C [9]?
A: 24.7%

Q: And the viability, T/C [10]?
A: 12%

Q: And the viability, T/C [11]?
A: 11.2%

Q: And the viability, T/C [12]?
A: 5.82%

Q: And the viability, T/C [13]?
A: 117%

Q: And the viability, T/C [14]?
A: 78.9%

Q: And the viability, T/C [15]?
A: 18.5%

Q: What about the viability, T/C [16] of the same molecule?
A: 13.2%

Q: And the viability, T/C [17]?
A: 12%

Q: And the viability, T/C [18]?
A: 5.73%

Q: What about the viability, T/C [19] of the same molecule?
A: 104%

Q: What about the viability, T/C [20] of the same molecule?
A: 72.7%

Q: What about the viability, T/C [21] of the same molecule?
A: 23.1%

Q: What about the viability, T/C [22] of the same molecule?
A: 10.9%

Q: And the viability, T/C [23]?
A: 10.2%

Q: And the viability, T/C [24]?
A: 5.09%

Q: And the viability, T/C [25]?
A: 107%

Q: And the viability, T/C [26]?
A: 69%

Q: And the viability, T/C [27]?
A: 12.6%

Q: And the viability, T/C [28]?
A: 14.6%

Q: And the viability, T/C [29]?
A: 9.39%

Q: What about the viability, T/C [30] of the same molecule?
A: 5.42%

Q: And the viability, T/C [31]?
A: 151%

Q: And the viability, T/C [32]?
A: 48.6%

Q: And the viability, T/C [33]?
A: 17%

Q: And the viability, T/C [34]?
A: 11.1%

Q: What about the viability, T/C [35] of the same molecule?
A: 9.46%

Q: What about the viability, T/C [36] of the same molecule?
A: 4.88%
